Data from patent US12281363B2, “Methods for detecting antiviral-drug resistant virus” (Secretary of State for Health and Social Care, priority 2018, dated 2025).
pIC50: −log10 of the molar value. Where two headings read alike, the source gives them in different places.

Test system: HSV-1
Assay: Plaque reduction assay, HSV-1 clinical isolates on Vero cells
Type: cell-based
Details: Human alphaherpesvirus 1, Vero
From the text: Viral isolates were used to infect a sub-confluent monolayer of Vero cells at a concentration of 75 or 50 plaque forming units (PFU) per well for HSV-1 and HSV-2, respectively. […] CMC medium typically used to create a semisolid interface and prevents indiscrimate viral spreading. Other materials (e.g. agar) may also be used to create this interface.
Cells were fixed with 10% formalin and stained with crystal violet before enumeration of the plaques (microscopic observation or use of fluorescent antibodies for detection is also suitable). The data obtained from these experiments were then expressed as percent inhibition of viral infectivity relative to the no drug control.
Definitions of phenotypic drug susceptibility classification as sensitive or resistant were as follows: ACV, <3 μM or >40 μM; PCV, <10 μM or >40 μM; CDV, <24 μM or >30 μM; FOS, <250 μM or >400 μM; and ACV, <6.5 μM or >40 μM; PCV, <38 μM or >40 μM; FOS, <250 μM or >400 μM for HSV-1 and HSV-2, respectively. Any IC50 values falling in between these sensitive and resistant cut-offs were reported as intermediate resistance.
The phenotype (i.e. reactivity to a drug) of the virus was characterised by the plaque reduction assay as described above.

Q: `Nc1nc2c(ncn2CCC(CO)CO)c(=O)[nH]1` [Penciclovir, penciclovir] was tested. Which pIC50 (72 h, isolate HPG053, HSV-1 pol L802R + A834S (2405T>G, 2500G>T), also TK R176W, read-out: Drug susceptibility (IC50 value)) did it give?
A: The pIC50 was less than 3.80.

Q: What about the pIC50 (isolate HPG002, HSV-1 pol E992K (2974G>A), also TK insert (G) nt 430-436, pol A1169T, read-out: Drug susceptibility (IC50 value)) of the same compound?
A: Its pIC50 is less than 3.80.

Q: And the pIC50 (isolate HPG002, HSV-1 pol E992K (2974G>A), also TK insert (G) nt 430-436, pol A1169T, read-out: Drug susceptibility Penciclovir (PCV))?
A: The pIC50 was less than 4.40.

Q: What about the pIC50 (isolate HPG003, HSV-1 TK Y172S (515A>C), read-out: Drug susceptibility (IC50 value)) of the same compound?
A: Its pIC50 is 3.97.

Q: What about the pIC50 (isolate HPG003, HSV-1 TK Y172S (515A>C), read-out: Drug susceptibility Penciclovir (PCV)) of the same compound?
A: Its pIC50 is less than 4.40.

Q: And the pIC50 (isolate HPG005, HSV-1 TK A37V (110C>T), read-out: Drug susceptibility (IC50 value))?
A: The pIC50 was 5.28.

Q: What about the pIC50 (isolate HPG005, HSV-1 TK A37V (110C>T), read-out: Drug susceptibility Penciclovir (PCV)) of the same compound?
A: Its pIC50 is greater than 5.00.

Q: And the pIC50 (isolate HPG008, HSV-1 TK V204G (611T>G), read-out: Drug susceptibility (IC50 value))?
A: The pIC50 was less than 3.80.

Q: And the pIC50 (isolate HPG008, HSV-1 TK V204G (611T>G), read-out: Drug susceptibility Penciclovir (PCV))?
A: Its pIC50 is less than 4.40.

Q: What about the pIC50 (isolate HPG009, HSV-1 pol E992K (2974G>A), also pol A1169T, read-out: Drug susceptibility (IC50 value)) of the same compound?
A: The pIC50 was 5.39.

Q: What about the pIC50 (isolate HPG009, HSV-1 pol E992K (2974G>A), also pol A1169T, read-out: Drug susceptibility Penciclovir (PCV)) of the same compound?
A: The pIC50 was greater than 5.00.

Q: And the pIC50 (isolate HPG010, HSV-1 TK Q125* (373C>T), read-out: Drug susceptibility (IC50 value))?
A: The pIC50 was 4.06.

Q: What about the pIC50 (isolate HPG010, HSV-1 TK Q125* (373C>T), read-out: Drug susceptibility Penciclovir (PCV)) of the same compound?
A: Its pIC50 is less than 4.40.

Q: And the pIC50 (isolate HPG011, HSV-1 TK Q125* (373C>T), read-out: Drug susceptibility (IC50 value))?
A: The pIC50 was 3.97.

Q: What about the pIC50 (isolate HPG011, HSV-1 TK Q125* (373C>T), read-out: Drug susceptibility Penciclovir (PCV)) of the same compound?
A: The pIC50 was less than 4.40.

Q: And the pIC50 (isolate HPG013, HSV-1 TK M121I (363G>A), read-out: Drug susceptibility (IC50 value))?
A: Its pIC50 is 3.98.

Q: What about the pIC50 (isolate HPG013, HSV-1 TK M121I (363G>A), read-out: Drug susceptibility Penciclovir (PCV)) of the same compound?
A: The pIC50 was less than 4.40.

Q: And the pIC50 (isolate HPG013, HSV-1 pol D83A (248A>C), also TK M121I, pol A1169T, read-out: Drug susceptibility (IC50 value))?
A: Its pIC50 is 3.98.

Q: What about the pIC50 (isolate HPG013, HSV-1 pol D83A (248A>C), also TK M121I, pol A1169T, read-out: Drug susceptibility Penciclovir (PCV)) of the same compound?
A: Its pIC50 is less than 4.40.

Q: What about the pIC50 (isolate HPG014, HSV-1 pol A1115T (3343G>A), read-out: Drug susceptibility (IC50 value)) of the same compound?
A: The pIC50 was 5.25.

Q: And the pIC50 (isolate HPG014, HSV-1 pol A1115T (3343G>A), read-out: Drug susceptibility Penciclovir (PCV))?
A: Its pIC50 is greater than 5.00.

Q: What about the pIC50 (isolate HPG014, HSV-1 pol R993C (2977C>T), read-out: Drug susceptibility (IC50 value)) of the same compound?
A: The pIC50 was 5.25.

Q: What about the pIC50 (isolate HPG014, HSV-1 pol R993C (2977C>T), read-out: Drug susceptibility Penciclovir (PCV)) of the same compound?
A: The pIC50 was greater than 5.00.

Q: What about the pIC50 (isolate HPG014, HSV-1 pol T54A (160A>G), read-out: Drug susceptibility (IC50 value)) of the same compound?
A: The pIC50 was 5.25.

Q: And the pIC50 (isolate HPG014, HSV-1 pol T54A (160A>G), read-out: Drug susceptibility Penciclovir (PCV))?
A: Its pIC50 is greater than 5.00.

Q: What about the pIC50 (isolate HPG015, HSV-1 pol 966stop or F965_I966insF (2892_2893insT to 2895_2896insT), read-out: Drug susceptibility (IC50 value)) of the same compound?
A: The pIC50 was 5.07.

Q: What about the pIC50 (isolate HPG015, HSV-1 pol 966stop or F965_I966insF (2892_2893insT to 2895_2896insT), read-out: Drug susceptibility Penciclovir (PCV)) of the same compound?
A: Its pIC50 is greater than 5.00.

Q: And the pIC50 (isolate HPG018, HSV-1 TK frameshift (881delC to 885delC), read-out: Drug susceptibility (IC50 value))?
A: Its pIC50 is 3.93.

Q: And the pIC50 (isolate HPG018, HSV-1 TK frameshift (881delC to 885delC), read-out: Drug susceptibility Penciclovir (PCV))?
A: Its pIC50 is less than 4.40.

Q: What about the pIC50 (isolate HPG018, HSV-1 pol P1199T (3595C>A), also TK deletion (C) nt 881-885, pol A1169T, read-out: Drug susceptibility (IC50 value)) of the same compound?
A: Its pIC50 is 3.93.

Q: What about the pIC50 (isolate HPG018, HSV-1 pol P1199T (3595C>A), also TK deletion (C) nt 881-885, pol A1169T, read-out: Drug susceptibility Penciclovir (PCV)) of the same compound?
A: The pIC50 was less than 4.40.

Q: What about the pIC50 (isolate HPG019, HSV-1 pol K750T (2249A>C), also TK deletion (G) nt 430-436, pol A1169T, read-out: Drug susceptibility (IC50 value)) of the same compound?
A: The pIC50 was less than 3.80.

Q: What about the pIC50 (isolate HPG019, HSV-1 pol K750T (2249A>C), also TK deletion (G) nt 430-436, pol A1169T, read-out: Drug susceptibility Penciclovir (PCV)) of the same compound?
A: Its pIC50 is less than 4.40.

Q: What about the pIC50 (isolate HPG020, HSV-1 pol S911N (2732G>A), also pol A1169T, read-out: Drug susceptibility (IC50 value)) of the same compound?
A: The pIC50 was 5.61.

Q: What about the pIC50 (isolate HPG020, HSV-1 pol S911N (2732G>A), also pol A1169T, read-out: Drug susceptibility Penciclovir (PCV)) of the same compound?
A: The pIC50 was greater than 5.00.

Q: And the pIC50 (isolate HPG021, HSV-1 pol R681Q (2042G>A), also TK deletion (G) nt 430-436, read-out: Drug susceptibility (IC50 value))?
A: The pIC50 was less than 3.80.

Q: And the pIC50 (isolate HPG021, HSV-1 pol R681Q (2042G>A), also TK deletion (G) nt 430-436, read-out: Drug susceptibility Penciclovir (PCV))?
A: The pIC50 was less than 4.40.

Q: What about the pIC50 (isolate HPG021, HSV-1 pol T839A (2515A>G), also TK deletion (G) nt 430-436, read-out: Drug susceptibility (IC50 value)) of the same compound?
A: The pIC50 was less than 3.80.

Q: What about the pIC50 (isolate HPG021, HSV-1 pol T839A (2515A>G), also TK deletion (G) nt 430-436, read-out: Drug susceptibility Penciclovir (PCV)) of the same compound?
A: Its pIC50 is less than 4.40.

Q: What about the pIC50 (isolate HPG025, HSV-1 pol E850Q (2548G>C), also TK R216C, read-out: Drug susceptibility (IC50 value)) of the same compound?
A: The pIC50 was 3.93.

Q: And the pIC50 (isolate HPG025, HSV-1 pol E850Q (2548G>C), also TK R216C, read-out: Drug susceptibility Penciclovir (PCV))?
A: Its pIC50 is less than 4.40.

Q: What about the pIC50 (isolate HPG026, HSV-1 pol E850Q (2548G>C), also TK R216C, pol A1169T, read-out: Drug susceptibility (IC50 value)) of the same compound?
A: The pIC50 was 4.46.

Q: What about the pIC50 (isolate HPG026, HSV-1 pol E850Q (2548G>C), also TK R216C, pol A1169T, read-out: Drug susceptibility Penciclovir (PCV)) of the same compound?
A: Its pIC50 is 4.40 to 5.00.

Q: What about the pIC50 (isolate HPG027, HSV-1 TK V204G (611T>G), also pol S914L, A1169AT, read-out: Drug susceptibility (IC50 value)) of the same compound?
A: The pIC50 was less than 3.80.

Q: And the pIC50 (isolate HPG027, HSV-1 TK V204G (611T>G), also pol S914L, A1169AT, read-out: Drug susceptibility Penciclovir (PCV))?
A: Its pIC50 is less than 4.40.

Q: What about the pIC50 (isolate HPG027, HSV-1 pol S914L (2741C>T), also TK V204G, pol A1169T, read-out: Drug susceptibility (IC50 value)) of the same compound?
A: The pIC50 was less than 3.80.

Q: What about the pIC50 (isolate HPG027, HSV-1 pol S914L (2741C>T), also TK V204G, pol A1169T, read-out: Drug susceptibility Penciclovir (PCV)) of the same compound?
A: The pIC50 was less than 4.40.

Q: And the pIC50 (isolate HPG029, HSV-1 TK Y172S (515A>C), read-out: Drug susceptibility (IC50 value))?
A: The pIC50 was less than 3.80.

Q: What about the pIC50 (isolate HPG029, HSV-1 TK Y172S (515A>C), read-out: Drug susceptibility Penciclovir (PCV)) of the same compound?
A: The pIC50 was less than 4.40.

Q: What about the pIC50 (isolate HPG031, HSV-1 pol E1120A (3359A>C), also a TK resistance mutation (footnote e), read-out: Drug susceptibility (IC50 value)) of the same compound?
A: Its pIC50 is 3.81.

Q: And the pIC50 (isolate HPG031, HSV-1 pol E1120A (3359A>C), also a TK resistance mutation (footnote e), read-out: Drug susceptibility Penciclovir (PCV))?
A: The pIC50 was less than 4.40.

Q: What about the pIC50 (isolate HPG031, HSV-1 pol G139R (415G>C or 415G>A), also a TK resistance mutation (footnote e), read-out: Drug susceptibility (IC50 value)) of the same compound?
A: The pIC50 was 3.81.

Q: What about the pIC50 (isolate HPG031, HSV-1 pol G139R (415G>C or 415G>A), also a TK resistance mutation (footnote e), read-out: Drug susceptibility Penciclovir (PCV)) of the same compound?
A: The pIC50 was less than 4.40.

Q: And the pIC50 (isolate HPG032, HSV-1 TK 183* (437_438insA), read-out: Drug susceptibility (IC50 value))?
A: The pIC50 was less than 3.80.

Q: And the pIC50 (isolate HPG032, HSV-1 TK 183* (437_438insA), read-out: Drug susceptibility Penciclovir (PCV))?
A: The pIC50 was less than 4.40.
